Reference: patent publication US20130157953A1, “TREATMENT OF CARDIAC CONDITIONS” (Zealand Pharma A/S, priority 2010, published 2013)
Numbered stars: 1 amine (or outer) side, 2 acyl side, 3 side chain; on linkers, the order of the positions; unused ones are H or OH. Bridge positions count the residues as written; N and C are the ends. Square brackets hold non-standard residues; d marks the D form. Side chains are listed from the residue outwards. Peptide text beside a SMILES is read from it. * marks the point of attachment. γGlu = O=C(O)[C@H](CCC(=O)[*:2])N[*:1]; εLys = N[C@@H](CCCCN[*:1])C(=O)[*:2]; Palmitoyl = CCCCCCCCCCCCCCCC(=O)*; Aib = CC(C)(N)C(=O)O

B1: Compound 217 (peptide)
peptide: H-H[Aib]QGTFTSDYSKYLDSK([εLys-Palmitoyl])AAHDFVEWLLSA-NH2
SMILES: CCCCCCCCCCCCCCCC(=O)NCCCC[C@H](N)C(=O)NCCCC[C@H](NC(=O)[C@H](CO)NC(=O)[C@H](CC(=O)O)NC(=O)[C@H](CC(C)C)NC(=O)[C@H](Cc1ccc(O)cc1)NC(=O)[C@H](CCCCN)NC(=O)[C@H](CO)NC(=O)[C@H](Cc1ccc(O)cc1)NC(=O)[C@H](CC(=O)O)NC(=O)[C@H](CO)NC(=O)[C@@H](NC(=O)[C@H](Cc1ccccc1)NC(=O)[C@@H](NC(=O)CNC(=O)[C@H](CCC(N)=O)NC(=O)C(C)(C)NC(=O)[C@@H](N)Cc1c[nH]cn1)[C@@H](C)O)[C@@H](C)O)C(=O)N[C@@H](C)C(=O)N[C@@H](C)C(=O)N[C@@H](Cc1c[nH]cn1)C(=O)N[C@@H](CC(=O)O)C(=O)N[C@@H](Cc1ccccc1)C(=O)N[C@H](C(=O)N[C@@H](CCC(=O)O)C(=O)N[C@@H](Cc1c[nH]c2ccccc12)C(=O)N[C@@H](CC(C)C)C(=O)N[C@@H](CC(C)C)C(=O)N[C@@H](CO)C(=O)N[C@@H](C)C(N)=O)C(C)C

Each molecule was assayed against human glucagon-like peptide 1 receptor (GLP-1R) (human, UniProt P43220 24-463) (assay: cell-based or functional assay). Conditions: not given.

Row | EC50 (nM) GLP-1R; cAMP content, HEK293 cells expressing human GLP-1R [nM] | Molecule
1 | 0.09 | B1

Each molecule was assayed against human glucagon receptor (Glucagon-R) (human, UniProt P47871 26-477) (assay: cell-based or functional assay). Conditions: not given.
human glucagon receptor (Glucagon-R), sequence (P47871 26-477): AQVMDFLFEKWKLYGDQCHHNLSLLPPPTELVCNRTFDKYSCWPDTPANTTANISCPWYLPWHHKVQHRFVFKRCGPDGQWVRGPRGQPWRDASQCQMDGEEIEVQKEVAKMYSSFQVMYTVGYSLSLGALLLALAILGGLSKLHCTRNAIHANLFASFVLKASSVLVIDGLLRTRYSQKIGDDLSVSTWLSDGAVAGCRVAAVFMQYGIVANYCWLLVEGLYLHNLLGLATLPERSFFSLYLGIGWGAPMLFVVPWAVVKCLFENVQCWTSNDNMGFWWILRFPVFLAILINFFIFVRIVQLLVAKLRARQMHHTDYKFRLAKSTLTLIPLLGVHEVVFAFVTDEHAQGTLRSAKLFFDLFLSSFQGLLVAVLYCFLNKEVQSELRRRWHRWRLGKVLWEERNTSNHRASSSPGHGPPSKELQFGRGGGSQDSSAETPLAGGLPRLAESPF

Row | EC50 (nM) GuR; cAMP content, HEK293 cells expressing the human glucagon receptor [nM] | Molecule
2 | 0.39 | B1

These molecules were tested against T1, human GLP-1R (Homo sapiens, UniProt P43220) (assay: cAMP formation in HEK293 cells expressing human GLP-1R). Conditions: 15 min at 37° C.
T1 construct: expressed in transfected cells; host or cells: HEK293
T1 sequence (P43220 24-463): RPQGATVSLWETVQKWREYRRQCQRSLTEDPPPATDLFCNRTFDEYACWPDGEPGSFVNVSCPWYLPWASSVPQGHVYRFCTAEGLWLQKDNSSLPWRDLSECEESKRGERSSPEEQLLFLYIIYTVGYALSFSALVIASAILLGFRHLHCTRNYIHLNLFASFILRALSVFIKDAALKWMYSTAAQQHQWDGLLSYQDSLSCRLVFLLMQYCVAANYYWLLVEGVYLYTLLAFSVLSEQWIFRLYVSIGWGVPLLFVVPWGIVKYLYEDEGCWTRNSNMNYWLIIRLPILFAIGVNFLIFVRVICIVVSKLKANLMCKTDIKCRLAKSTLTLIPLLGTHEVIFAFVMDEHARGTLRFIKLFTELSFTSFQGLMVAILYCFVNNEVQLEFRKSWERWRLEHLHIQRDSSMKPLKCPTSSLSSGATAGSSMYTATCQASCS
Assay type: cell-based
Excerpt: Similarly, activation of the GLP-1 receptor by a GLP-1 agonist will stimulate cellular cAMP formation. Thus, production of cAMP in suitable cells expressing one of these two receptors can be used to monitor the relevant receptor activity.
The skilled person will be aware of suitable assay formats, and examples are provided below. […] (Where sequences of precursor proteins are referred to, it should of course be understood that assays may make use of the mature protein, lacking the signal sequence).
On the day of analysis, growth medium was removed and the cells washed once with 200 μl Tyrode buffer. Cells were incubated in […] containing increasing concentrations of test peptides, 100 μM IBMX, and 6 mM glucose for 15 min at 37° C. The reaction was stopped by addition of 25 μl 0.5 M HCl and incubated on ice for 60 min. The cAMP content was estimated using the FlashPlate® cAMP kit from Perkin-Elmer. EC50 values were estimated by computer aided curve fitting.

Row | EC50 [nM] | Molecule
3 | 0.09 | CC(C)C[C@H](NC(=O)[C@H](CC(C)C)NC(=O)[C@H](Cc1c[nH]c2ccccc12)NC(=O)[C@H](CCC(=O)O)NC(=O)[C@@H](NC(=O)[C@H](Cc1ccccc1)NC(=O)[C@H](CC(=O)O)NC(=O)[C@H](Cc1c[nH]cn1)NC(=O)[C@H](C)NC(=O)[C@H](C)NC(=O)[C@H](CCCCN)NC(=O)[C@H](CO)NC(=O)[C@H](CC(=O)O)NC(=O)[C@H](CC(C)C)NC(=O)[C@H](Cc1ccc(O)cc1)NC(=O)[C@H](CCCCN)NC(=O)[C@H](CO)NC(=O)[C@H](Cc1ccc(O)cc1)NC(=O)[C@H](CC(=O)O)NC(=O)[C@H](CO)NC(=O)[C@@H](NC(=O)[C@H](Cc1ccccc1)NC(=O)[C@@H](NC(=O)CNC(=O)[C@H](CCC(N)=O)NC(=O)[C@@H](CO)NC(=O)[C@@H](N)Cc1c[nH]cn1)[C@@H](C)O)[C@@H](C)O)C(C)C)C(=O)N[C@@H](CCCNC(=N)N)C(=O)N[C@@H](C)C(N)=O [Compound 44] (H-H[dS]QGTFTSDYSKYLDSKAAHDFVEWLLRA-NH2)
4 | 0.2 | CCCCCCCCCCCCCCCC(=O)N[C@@H](CCC(=O)NCCCC[C@H](NC(=O)[C@H](CC(=O)O)NC(=O)[C@H](CC(C)C)NC(=O)[C@H](Cc1ccc(O)cc1)NC(=O)[C@H](CCCCN)NC(=O)[C@H](CO)NC(=O)[C@H](Cc1ccc(O)cc1)NC(=O)[C@H](CC(=O)O)NC(=O)[C@H](CO)NC(=O)[C@@H](NC(=O)[C@H](Cc1ccccc1)NC(=O)[C@@H](NC(=O)CNC(=O)[C@H](CCC(N)=O)NC(=O)[C@H](CO)NC(=O)[C@@H](N)Cc1c[nH]cn1)[C@@H](C)O)[C@@H](C)O)C(=O)N[C@@H](CCCCN)C(=O)N[C@@H](C)C(=O)N[C@@H](C)C(=O)N[C@@H](Cc1c[nH]cn1)C(=O)N[C@@H](CC(=O)O)C(=O)N[C@@H](Cc1ccccc1)C(=O)N[C@H](C(=O)N[C@@H](CCC(=O)O)C(=O)N[C@@H](Cc1c[nH]c2ccccc12)C(=O)N[C@@H](CC(C)C)C(=O)N[C@@H](CC(C)C)C(=O)N[C@@H](CCCNC(=N)N)C(=O)N[C@@H](C)C(N)=O)C(C)C)C(=O)O [Compound 202] (H-HSQGTFTSDYSKYLDK([γGlu-Palmitoyl])KAAHDFVEWLLRA-NH2)
5 | 0.08 | CCCCCCCCCCCCCCCC(=O)N[C@@H](CCC(=O)NCCCC[C@H](NC(=O)[C@H](CO)NC(=O)[C@H](CC(=O)O)NC(=O)[C@H](CC(C)C)NC(=O)[C@H](Cc1ccc(O)cc1)NC(=O)[C@H](CCCCN)NC(=O)[C@H](CO)NC(=O)[C@H](Cc1ccc(O)cc1)NC(=O)[C@H](CC(=O)O)NC(=O)[C@H](CO)NC(=O)[C@@H](NC(=O)[C@H](Cc1ccccc1)NC(=O)[C@@H](NC(=O)CNC(=O)[C@H](CCC(N)=O)NC(=O)C(C)(C)NC(=O)[C@@H](N)Cc1c[nH]cn1)[C@@H](C)O)[C@@H](C)O)C(=O)N[C@@H](C)C(=O)N[C@@H](C)C(=O)N[C@@H](Cc1c[nH]cn1)C(=O)N[C@@H](CC(=O)O)C(=O)N[C@@H](Cc1ccccc1)C(=O)N[C@H](C(=O)N[C@H]1CCC(=O)NCCCC[C@@H](C(=O)N[C@@H](C)C(N)=O)NC(=O)[C@H](CC(C)C)NC(=O)[C@H](CC(C)C)NC(=O)[C@H](Cc2c[nH]c3ccccc23)NC1=O)C(C)C)C(=O)O [Compound 210] (H-H[Aib]QGTFTSDYSKYLDSK([γGlu-Palmitoyl])AAHDFVEWLLKA-NH2; lactam 24-28)
6 | 0.23 | CCCCCCCCCCCCCCCC(=O)NCCC(=O)NCCCC[C@H](NC(=O)[C@H](CO)NC(=O)[C@H](CC(=O)O)NC(=O)[C@H](CC(C)C)NC(=O)[C@H](Cc1ccc(O)cc1)NC(=O)[C@H](CCCCN)NC(=O)[C@H](CO)NC(=O)[C@H](Cc1ccc(O)cc1)NC(=O)[C@H](CC(=O)O)NC(=O)[C@H](CO)NC(=O)[C@@H](NC(=O)[C@H](Cc1ccccc1)NC(=O)[C@@H](NC(=O)CNC(=O)[C@H](CCC(N)=O)NC(=O)C(C)(C)NC(=O)[C@@H](N)Cc1c[nH]cn1)[C@@H](C)O)[C@@H](C)O)C(=O)N[C@@H](C)C(=O)N[C@@H](C)C(=O)N[C@@H](Cc1c[nH]cn1)C(=O)N[C@@H](CC(=O)O)C(=O)N[C@@H](Cc1ccccc1)C(=O)N[C@H](C(=O)N[C@@H](CCC(=O)O)C(=O)N[C@@H](Cc1c[nH]c2ccccc12)C(=O)N[C@@H](CC(C)C)C(=O)N[C@@H](CC(C)C)C(=O)N[C@@H](CO)C(=O)N[C@@H](C)C(N)=O)C(C)C [Compound 215]
7 | 0.24 | CCCCCCCCCCCCCCCC(=O)NCCCCCCCC(=O)NCCCC[C@H](NC(=O)[C@H](CO)NC(=O)[C@H](CC(=O)O)NC(=O)[C@H](CC(C)C)NC(=O)[C@H](Cc1ccc(O)cc1)NC(=O)[C@H](CCCCN)NC(=O)[C@H](CO)NC(=O)[C@H](Cc1ccc(O)cc1)NC(=O)[C@H](CC(=O)O)NC(=O)[C@H](CO)NC(=O)[C@@H](NC(=O)[C@H](Cc1ccccc1)NC(=O)[C@@H](NC(=O)CNC(=O)[C@H](CCC(N)=O)NC(=O)C(C)(C)NC(=O)[C@@H](N)Cc1c[nH]cn1)[C@@H](C)O)[C@@H](C)O)C(=O)N[C@@H](C)C(=O)N[C@@H](C)C(=O)N[C@@H](Cc1c[nH]cn1)C(=O)N[C@@H](CC(=O)O)C(=O)N[C@@H](Cc1ccccc1)C(=O)N[C@H](C(=O)N[C@@H](CCC(=O)O)C(=O)N[C@@H](Cc1c[nH]c2ccccc12)C(=O)N[C@@H](CC(C)C)C(=O)N[C@@H](CC(C)C)C(=O)N[C@@H](CO)C(=O)N[C@@H](C)C(N)=O)C(C)C [Compound 216]
8 | 0.09 | CCCCCCCCCCCCCCCC(=O)NCCCC[C@H](N)C(=O)NCCCC[C@H](NC(=O)[C@H](CO)NC(=O)[C@H](CC(=O)O)NC(=O)[C@H](CC(C)C)NC(=O)[C@H](Cc1ccc(O)cc1)NC(=O)[C@H](CCCCN)NC(=O)[C@H](CO)NC(=O)[C@H](Cc1ccc(O)cc1)NC(=O)[C@H](CC(=O)O)NC(=O)[C@H](CO)NC(=O)[C@@H](NC(=O)[C@H](Cc1ccccc1)NC(=O)[C@@H](NC(=O)CNC(=O)[C@H](CCC(N)=O)NC(=O)C(C)(C)NC(=O)[C@@H](N)Cc1c[nH]cn1)[C@@H](C)O)[C@@H](C)O)C(=O)N[C@@H](C)C(=O)N[C@@H](C)C(=O)N[C@@H](Cc1c[nH]cn1)C(=O)N[C@@H](CC(=O)O)C(=O)N[C@@H](Cc1ccccc1)C(=O)N[C@H](C(=O)N[C@@H](CCC(=O)O)C(=O)N[C@@H](Cc1c[nH]c2ccccc12)C(=O)N[C@@H](CC(C)C)C(=O)N[C@@H](CC(C)C)C(=O)N[C@@H](CO)C(=O)N[C@@H](C)C(N)=O)C(C)C [Compound 217]
9 | 0.1 | CSCC[C@H](NC(=O)[C@H](CC(C)C)NC(=O)[C@H](Cc1c[nH]c2ccccc12)NC(=O)[C@@H](NC(=O)[C@H](Cc1ccccc1)NC(=O)[C@H](CC(=O)O)NC(=O)[C@@H]1CCC(=O)NCCCC[C@H](NC(=O)[C@H](CC(=O)O)NC(=O)[C@H](CC(C)C)NC(=O)[C@H](Cc2ccc(O)cc2)NC(=O)[C@H](CCCCN)NC(=O)[C@H](CO)NC(=O)[C@H](Cc2ccc(O)cc2)NC(=O)[C@H](CC(=O)O)NC(=O)[C@H](CO)NC(=O)[C@@H](NC(=O)[C@H](Cc2ccccc2)NC(=O)[C@@H](NC(=O)CNC(=O)[C@H](CCC(N)=O)NC(=O)[C@H](CO)NC(=O)[C@@H](N)Cc2c[nH]cn2)[C@@H](C)O)[C@@H](C)O)C(=O)N[C@@H](CCCNC(=N)N)C(=O)N[C@@H](CCCNC(=N)N)C(=O)N[C@@H](C)C(=O)N1)C(C)C)C(=O)N[C@@H](CC(N)=O)C(=O)N[C@H](C(N)=O)[C@@H](C)O [Compound 257] (H-HSQGTFTSDYSKYLDKRRAEDFVWLMNT-NH2; lactam 16-20)
10 | 0.11 | CCCCCCCCCCCCCCCC(=O)N[C@@H](CCC(=O)NCCCC[C@H](NC(=O)[C@H](CO)NC(=O)[C@H](CC(=O)O)NC(=O)[C@H](CC(C)C)NC(=O)[C@H](Cc1ccc(O)cc1)NC(=O)[C@H](CCCCN)NC(=O)[C@H](CO)NC(=O)[C@H](Cc1ccc(O)cc1)NC(=O)[C@H](CC(=O)O)NC(=O)[C@H](CO)NC(=O)[C@@H](NC(=O)[C@H](Cc1ccccc1)NC(=O)[C@@H](NC(=O)CNC(=O)[C@H](CCC(N)=O)NC(=O)[C@H](CO)NC(=O)[C@@H](N)Cc1c[nH]cn1)[C@@H](C)O)[C@@H](C)O)C(=O)N[C@@H](C)C(=O)N[C@@H](C)C(=O)N[C@@H](Cc1c[nH]cn1)C(=O)N[C@@H](CC(=O)O)C(=O)N[C@@H](Cc1ccccc1)C(=O)N[C@H](C(=O)N[C@@H](CCC(=O)O)C(=O)N[C@@H](Cc1c[nH]c2ccccc12)C(=O)N[C@@H](CC(C)C)C(=O)N[C@@H](CC(C)C)C(=O)N[C@@H](CCCNC(=N)N)C(=O)N[C@@H](C)C(N)=O)C(C)C)C(=O)O [Compound 262] (H-HSQGTFTSDYSKYLDSK([γGlu-Palmitoyl])AAHDFVEWLLRA-NH2)
11 | 0.5 | H-HSQGTFTSDYSRYLDSRRAKDFVWLLNT-NH2 [Compound 252]
